This is an account of results in the supplement of paper PMC10307832.

Experiment in all cases: relative viability (nuclei count vs DMSO), 5 days (fraction); higher = more cells survive
Compound in assay [1]: C[As](C)SC[C@H](NC(=O)CC[C@H](N)C(=O)O)C(=O)NCC(=O)O [Darinaparsin] + CCNC(=O)c1noc(-c2cc(C(C)C)c(O)cc2O)c1-c1ccc(CN2CCOCC2)cc1 [Luminespib] (partner 0.01 µM)
The gist of the method:
(§1)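 Lung cancer cell lines in 1536-well plates were dosed by pin tool the day after seeding, either with one drug alone or with a fixed anchor-drug dose plus five library-drug doses (not always all listed) in √10 steps. After 5 days, cells were fixed and their nuclei stained in one step (final 0.05% Triton X-100, 1% formaldehyde, 1 ug/ml Hoechst), then counted on 4× images. Relative viability is the nuclei count in treated wells divided by that in vehicle wells. Values are medians of duplicate plates.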

Compound in assay [2]: CC1=C(C=C(C=C1)NC(=O)C2=CC(=CC=C2)C(C)(C)C#N)NC3=CC4=C(C=C3)N=CN(C4=O)C [AZ628] + C[C@]1(O)C[C@@H](c2nc(-c3ccc4ccc(-c5ccccc5)nc4c3)c3c(N)nccn32)C1 [Linsitinib] (partner 1 µM)
The method, boiled down:
as §1

Compound in assay [3]: C[As](C)SC[C@H](NC(=O)CC[C@H](N)C(=O)O)C(=O)NCC(=O)O [Darinaparsin] + Nc1nc2[nH]cc(CCc3ccc(C(=O)N[C@@H](CCC(=O)O)C(=O)O)cc3)c2c(=O)[nH]1 [Pemetrexed] (partner 0.2 µM)
The method, boiled down:
as §1

Compound in assay [4]: C[As](C)SC[C@H](NC(=O)CC[C@H](N)C(=O)O)C(=O)NCC(=O)O [Darinaparsin] + COc1cccc2cc(-c3nc([C@H]4CC[C@H](C(=O)O)CC4)n4ncnc(N)c34)[nH]c12 [OSI-027] (partner 0.5 µM)
The method, boiled down:
as §1

Take LXF-289: the relative viability in assay [1] (first compound 0.08 µM) stood at 0.773; in assay [1] (first compound 0.8 µM) it was 0.499; in assay [1] (first compound 2.53 µM) it was 0.578; in assay [1] (first compound 8 µM), 1.06; in assay [2] (first compound 0.08 µM) it was 1.02; in assay [2] (first compound 0.253 µM), 0.949. Moreover, the relative viability amounted to 0.932 in assay [2] (first compound 0.8 µM); 0.92 in assay [2] (first compound 2.53 µM); 0.589 in assay [2] (first compound 8 µM); 0.888 in assay [3] (first compound 0.08 µM); 0.962 in assay [3] (first compound 0.8 µM); 0.894 in assay [3] (first compound 2.53 µM). Moreover, the relative viability is 0.965 in assay [3] (first compound 8 µM); 0.849 in assay [4] (first compound 0.08 µM); 0.786 in assay [4] (first compound 0.8 µM); 0.649 in assay [4] (first compound 2.53 µM); 1.02 in assay [4] (first compound 8 µM).
As to NCI-H520, the relative viability in assay [1] (first compound 0.08 µM) came to 0.219; in assay [1] (first compound 0.8 µM), 0.21; in assay [1] (first compound 2.53 µM) it was 0.222; in assay [1] (first compound 8 µM), 0.192; in assay [2] (first compound 0.08 µM) it was 1.08; in assay [2] (first compound 0.253 µM), 1.03. Further, the relative viability in assay [2] (first compound 0.8 µM) came to 0.872; in assay [2] (first compound 2.53 µM), 1.01; in assay [2] (first compound 8 µM), 0.62; in assay [3] (first compound 0.08 µM), 0.639; in assay [3] (first compound 0.8 µM), 0.613; in assay [3] (first compound 2.53 µM), 0.68. For the same cell line, the relative viability in assay [3] (first compound 8 µM) worked out at 0.76; in assay [4] (first compound 0.08 µM), 0.362; in assay [4] (first compound 0.8 µM) it was 0.302; in assay [4] (first compound 2.53 µM), 0.185; in assay [4] (first compound 8 µM) it was 0.302.
Consider NCI-H1395, for which the relative viability in assay [1] (first compound 0.08 µM) was 0.681; in assay [1] (first compound 0.8 µM) it was 0.708; in assay [1] (first compound 2.53 µM) it was 0.553; in assay [1] (first compound 8 µM), 0.593; in assay [2] (first compound 0.08 µM), 1.21; in assay [2] (first compound 0.253 µM), 1.18. The relative viability was found to be 1.23 in assay [2] (first compound 0.8 µM); 1.07 in assay [2] (first compound 2.53 µM); 1.05 in assay [2] (first compound 8 µM); 0.944 in assay [3] (first compound 0.08 µM); 0.719 in assay [3] (first compound 0.8 µM); 0.795 in assay [3] (first compound 2.53 µM). Moreover, the relative viability in assay [3] (first compound 8 µM) turned out to be 0.792; in assay [4] (first compound 0.08 µM), 0.744; in assay [4] (first compound 0.8 µM), 0.636; in assay [4] (first compound 2.53 µM) it was 0.586; in assay [4] (first compound 8 µM), 0.628.
Consider H3255, for which the relative viability in assay [1] (first compound 0.08 µM) worked out at 0.88; in assay [1] (first compound 0.8 µM), 0.94; in assay [1] (first compound 2.53 µM), 0.807; in assay [1] (first compound 8 µM), 0.95; in assay [2] (first compound 0.08 µM), 0.965; in assay [2] (first compound 0.253 µM), 0.859. Besides, the relative viability in assay [2] (first compound 0.8 µM) is 0.965; in assay [2] (first compound 2.53 µM) it was 0.968; in assay [2] (first compound 8 µM), 0.737; in assay [3] (first compound 0.08 µM), 0.576; in assay [3] (first compound 0.8 µM) it was 0.587; in assay [3] (first compound 2.53 µM) it was 0.522. Further, the relative viability in assay [3] (first compound 8 µM) turned out to be 0.54; in assay [4] (first compound 0.08 µM) it was 0.607; in assay [4] (first compound 0.8 µM), 0.543; in assay [4] (first compound 2.53 µM), 0.618; in assay [4] (first compound 8 µM), 0.547.
As to NCI-H460, the relative viability came to 0.0325 in assay [1] (first compound 0.08 µM); 0.033 in assay [1] (first compound 0.8 µM); 0.0441 in assay [1] (first compound 2.53 µM); 0.0347 in assay [1] (first compound 8 µM); 0.74 in assay [2] (first compound 0.08 µM); 0.694 in assay [2] (first compound 0.253 µM). In addition, the relative viability came to 0.658 in assay [2] (first compound 0.8 µM); 0.523 in assay [2] (first compound 2.53 µM); 0.154 in assay [2] (first compound 8 µM); 0.0581 in assay [3] (first compound 0.08 µM); 0.0587 in assay [3] (first compound 0.8 µM); 0.0655 in assay [3] (first compound 2.53 µM). In addition, the relative viability in assay [3] (first compound 8 µM) came out at 0.0643; in assay [4] (first compound 0.08 µM), 0.98; in assay [4] (first compound 0.8 µM) it was 0.753; in assay [4] (first compound 2.53 µM), 0.537; in assay [4] (first compound 8 µM), 1.19.
Turning to PC-14, the relative viability in assay [1] (first compound 0.08 µM) was 0.19; in assay [1] (first compound 0.8 µM) it was 0.185; in assay [1] (first compound 2.53 µM) it was 0.157; in assay [1] (first compound 8 µM), 0.0932; in assay [2] (first compound 0.08 µM), 0.946; in assay [2] (first compound 0.253 µM), 0.862. The relative viability is 0.946 in assay [2] (first compound 0.8 µM); 0.981 in assay [2] (first compound 2.53 µM); 0.703 in assay [2] (first compound 8 µM); 0.134 in assay [3] (first compound 0.08 µM); 0.131 in assay [3] (first compound 0.8 µM); 0.128 in assay [3] (first compound 2.53 µM). In addition, the relative viability in assay [3] (first compound 8 µM) amounted to 0.143; in assay [4] (first compound 0.08 µM), 1.09; in assay [4] (first compound 0.8 µM), 0.697; in assay [4] (first compound 2.53 µM), 0.704; in assay [4] (first compound 8 µM) it was 1.26.
Turning to HCC-15, the relative viability in assay [1] (first compound 0.08 µM) turned out to be 0.461; in assay [1] (first compound 0.8 µM), 0.253; in assay [1] (first compound 2.53 µM) it was 0.326; in assay [1] (first compound 8 µM), 0.467; in assay [2] (first compound 0.08 µM), 0.918; in assay [2] (first compound 0.253 µM), 0.799. The relative viability stood at 0.704 in assay [2] (first compound 0.8 µM); 0.695 in assay [2] (first compound 2.53 µM); 0.414 in assay [2] (first compound 8 µM); 0.223 in assay [3] (first compound 0.08 µM); 0.221 in assay [3] (first compound 0.8 µM); 0.211 in assay [3] (first compound 2.53 µM). Besides, the relative viability in assay [3] (first compound 8 µM) came to 0.213; in assay [4] (first compound 0.08 µM), 0.737; in assay [4] (first compound 0.8 µM), 0.59; in assay [4] (first compound 2.53 µM), 0.694; in assay [4] (first compound 8 µM), 0.707.
In the case of NCI-H1437, the relative viability in assay [1] (first compound 0.08 µM) worked out at 1.32; in assay [1] (first compound 0.8 µM), 1.21; in assay [1] (first compound 2.53 µM), 1.08; in assay [1] (first compound 8 µM) it was 1.36; in assay [2] (first compound 0.08 µM), 0.966; in assay [2] (first compound 0.253 µM), 0.846. The relative viability turned out to be 0.958 in assay [2] (first compound 0.8 µM); 0.779 in assay [2] (first compound 2.53 µM); 0.848 in assay [2] (first compound 8 µM); 0.34 in assay [3] (first compound 0.08 µM); 0.371 in assay [3] (first compound 0.8 µM); 0.301 in assay [3] (first compound 2.53 µM). Besides, the relative viability is 0.329 in assay [3] (first compound 8 µM); 0.955 in assay [4] (first compound 0.08 µM); 0.897 in assay [4] (first compound 0.8 µM); 0.935 in assay [4] (first compound 2.53 µM); 1.01 in assay [4] (first compound 8 µM).
